Where two headings read alike, the source gives them in different places.
Test: Multiple escalating dose pharmacokinetic study of T-62 soft gelatin capsules (Example 12)
Type: in vivo
Conditions: both sexes, human, plasma, healthy adults; for Tmax: median; for AUC(0-inf) / Cmax / AUC: po, arithmetic mean (SD); for AUC: τ = 12 hours, read-out: AUC0-τ
Description: A single-center, randomized, double-blind, parallel-group, placebo-controlled study of the safety, tolerability, and pharmacokinetics of escalating multiple doses of a T-62 composition in soft gelatin capsules (oral dosage form 4) in healthy adult male and female subjects was carried out.
Three cohorts of 12 subjects were enrolled for the study (19-38 years of age). Subjects in each cohort were randomly assigned in a 3:1 allocation to receive multiple doses of either T-62 (n=9) or placebo (n=3). Subjects in each cohort received study medication for a total of 6 days. Subjects in the first cohort received multiple doses of 100 mg T-62 or placebo. Subsequent cohorts of 12 new subjects each received multiple doses of placebo or a higher dose level of T-62 (i.e., 2×100 mg for the second cohort and 4×100 mg for the third cohort).
Each subject in each dosing cohort completed Screening, Baseline, Treatment, and Follow-Up Phases. The Screening Phase was conducted on an outpatient basis within 30 days, but no less than 3 days, prior to the start of the Baseline Phase. The Baseline Phase consisted of clinical research unit (CRU) admission and final qualification assessments. The Treatment Phase comprised of dosing, post-treatment safety assessments, and blood collection.
On the morning of Day 1, subjects received a single dose of study drug; no additional study drug were administered on Day 1. Twice-daily dosing (one morning dose and one evening dose) commenced on Day 2 and continue through Day 5. Subjects received a final dose of study drug on the morning of Day 6. Once subjects in each cohort had completed dosing, an additional 48 hours of blood sampling was conducted following the final dose to characterize the pharmacokinetics of T-62 at steady state. Subjects were discharged at the end of the 48-hour blood sampling (Day 8). The Follow-Up Phase occurred 2 days (but no more than 4 days) after discharge from the CRU.
For all cohorts, on Day 2 through Day 5, subjects were not allowed to eat any food beginning 1 hour prior to the morning and evening doses of study drug and until 2 hours after study drug administration. On Day 1 and Day 6, subjects fasted for a minimum of 9 hours pre-dose to 4 hours post-dose.
Blood samples for determining plasma concentrations of T-62 and pharmacokinetic parameters were obtained immediately prior to dosing on Day 1 and at regular intervals post-dosing over 12 hours in each treatment cohort. On Days 2-5, blood samples for pharmacokinetic analysis were collected each day prior to the morning and evening doses of study drug. Once subjects in each cohort had completed dosing on Day 6, an additional 48 hours of plasma sampling were conducted following the final dose of study drug to characterize the pharmacokinetics of T-62 at steady state.

[1] = 200 mg, Day 1, single dose 2 × 100 mg (oral dosage form 4), n = 9
[2] = 400 mg, Day 1, single dose 4 × 100 mg (oral dosage form 4), n = 9
[3] = 100 mg, Day 1, single dose 100 mg (oral dosage form 4), n = 8
[4] = 100 mg, Steady state (Day 6), 100 mg BID (oral dosage form 4), n = 8
[5] = 200 mg, Steady state (Day 6), 2 × 100 mg BID (oral dosage form 4), n = 9
[6] = 400 mg, Steady state (Day 6), 4 × 100 mg BID (oral dosage form 4), n = 9

- Tmax [1]: 1 h
- Tmax [2]: 2 h
- AUC(0-inf) [3]: 96.9 ng·h/mL
- Cmax [3]: 28.8 ng/mL
- AUC [3]: 89.5 ng·h/mL
- AUC(0-inf) [4]: 407 ng·h/mL
- Cmax [4]: 55.9 ng/mL
- AUC [4]: 197 ng·h/mL
- AUC(0-inf) [1]: 254 ng·h/mL
- Cmax [1]: 60.7 ng/mL
- AUC [1]: 211 ng·h/mL
- AUC(0-inf) [5]: 995 ng·h/mL
- Cmax [5]: 107 ng/mL
- AUC [5]: 450 ng·h/mL
- AUC(0-inf) [2]: 496 ng·h/mL
- Cmax [2]: 71.4 ng/mL
- AUC [2]: 399 ng·h/mL
- AUC(0-inf) [6]: 2210 ng·h/mL
- Cmax [6]: 179 ng/mL
- AUC [6]: 958 ng·h/mL
- Tmax (Day 1, single dose 100 mg (oral dosage form 4), n = 8): 1 h
Compound: Nc1sc2c(c1C(=O)c1ccc(Cl)cc1)CCCC2 [T-62, (2-amino-4,5,6,7-tetrahydrobenzo[b]thiophen-3-yl)(4-chlorophenyl)-methanone]
